Assay results published in US7153884B2, “C-2′ methylated derivatives of paclitaxel for use as antitumour agents” (Indena S.p.A., priority 2001, dated 2006).

Experiments:
Type in all cases: cell-based
[1] = test system: A2780adr cell line; experiment: Cell viability by ATP dosage (ATPlite), 72 h continuous exposure, A2780adr; conditions: A2780adr cells, continuous exposure 72 hours, viable cells by ATP dosage
Experimental: (§1) Pharmacological experimentation was carried out on the compounds of the invention at a 0.1% concentration in dimethylsulfoxide. A2780wt, A2780cis, A2780adr and A2780tax cell lines were used. Cells were plated on 96 well flat bottom plates (Viewplates, Packard). After 24-hours, the culture medium was replaced and, after washing, media containing the tested compounds were added. A dose-response logarithmic curve was established in quadruplicate for each plate, starting from […]. Each assay was effected in duplicate three times. After 72 hour-culture in the presence of the tested compounds, the cells were collected and the number of viable cells was evaluated by ATP dosage, using the ATPlite kit (Packard, Meridien, Mo., USA) and the Topcount (Packard) automated luminometer. For each drug/cell line, the dose-response curve was plotted and the IC50 values were calculated from the concentration-effect curve obtained in three tests with the sigmoid-Emax model using non-linear regression, weighted by the reciprocal of the square of the predicted effect.

[2] = test system: A2780cis cell line; experiment: Cell viability by ATP dosage (ATPlite), 72 h continuous exposure, A2780cis; conditions: A2780cis cells, continuous exposure 72 hours, viable cells by ATP dosage
Experimental: as §1

[3] = test system: A2780wt cell line; experiment: Cell viability by ATP dosage (ATPlite), 72 h continuous exposure, A2780wt; conditions: A2780wt cells, continuous exposure 72 hours, viable cells by ATP dosage
Experimental: as §1

[4] = test system: A2780tax cell line; experiment: Cell viability by ATP dosage (ATPlite), 72 h continuous exposure, A2780tax; conditions: A2780tax cells, continuous exposure 72 hours, viable cells by ATP dosage
Experimental: as §1

Row | Molecule | IC50 [1] [µM] | IC50 [2] [µM] | IC50 [3] [µM] | IC50 [4] [µM]
1 | CC(=O)OC1C(=O)C2(C)C(O)CC3OCC3(OC(C)=O)C2C(OC(=O)c2ccccc2)C2(O)CC(OC(=O)C(C)(O)C(NC(=O)c3ccccc3)c3ccco3)C(C)=C1C2(C)C (stereo not drawn) [Es. 1, (2′R,3′R)-3′-dephenyl-3′-(2-furyl)-2′-methyl-paclitaxel] | 0.0614 ± 0.0039 | 0.0029 ± 0.0001 | 0.0031 ± 0.0002 | 0.42 ± 0.093
2 | CC(=O)O[C@H]1C(=O)[C@@]2(C)[C@H]([C@H](OC(=O)c3ccccc3)[C@]34OC(=O)O[C@H]3[C@H](OC(=O)[C@](C)(O)[C@@H](NC(=O)OC(C)(C)C)c3ccccc3)C(C)=C1C4(C)C)[C@]1(OC(C)=O)CO[C@@H]1C[C@@H]2O [Es. 2, (2′R,3′S)-13-(N-Boc-2-methyl-3-phenylisoserinoyl)-14β-hydroxybaccatin III 1,14-carbonate] | 0.0529 ± 0.0162 | 0.0017 ± 0.0004 | 0.00253 ± 0.00147 | 0.299 ± 0.077
3 | CC(=O)O[C@H]1C(=O)[C@@]2(C)[C@H]([C@H](OC(=O)c3ccccc3)[C@]3(O)C[C@H](OC(=O)[C@](C)(O)[C@@H](NC(=O)OC(C)(C)C)c4ccco4)C(C)=C1C3(C)C)[C@]1(OC(C)=O)CO[C@@H]1C[C@@H]2O [Es. 3, (2′R,3′R)-13-[N-Boc-2-methyl-3-(2-furanyl)-isoserinoyl]-baccatin III] | 0.0413 ± 0.0074 | 0.0033 ± 0.0002 | 0.0029 ± 0.0001 | 0.312 ± 0.061
4 | CC(=O)O[C@H]1C(=O)[C@@]2(C)[C@H]([C@H](OC(=O)c3ccccc3)[C@]34OC(=O)O[C@H]3[C@H](OC(=O)[C@](C)(O)[C@@H](NC(=O)OC(C)(C)C)c3ccco3)C(C)=C1C4(C)C)[C@]1(OC(C)=O)CO[C@@H]1C[C@@H]2O [Es. 4, (2′R,3′R)-13-[N-Boc-2-methyl-3-(2-furanyl)isoserinoyl]-14β-hydroxybaccatin III 1,14-carbonate] | 0.0271 ± 0.0101 | 0.0025 ± 0.0003 | 0.0059 ± 0.0007 | 0.0309 ± 0.0037
5 | CC(=O)O[C@H]1C(=O)[C@@]2(C)[C@H]([C@H](OC(=O)c3ccccc3)[C@]34OC(=O)O[C@H]3[C@H](OC(=O)[C@](C)(O)[C@@H](NC(=O)OC(C)(C)C)C(F)(F)F)C(C)=C1C4(C)C)[C@]1(OC(C)=O)CO[C@@H]1C[C@@H]2O [Es. 5, (2′R,3′R)-13-[N-Boc-2-methyl-3-trifluoromethylisoserinoyl]-14β-hydroxybaccatin III 1,14-carbonate] | 0.0793 ± 0.0199 | 0.0028 ± 0.0006 | 0.00464 ± 0.00258 | 0.285 ± 0.06
6 | (2′R,3′R)-13-[N-Boc-2-methyl-3-(2-thienyl)isoserinoyl]-14β-hydroxybaccatin III 1,14-carbonate [Es. 6] | 0.0932 ± 0.0204 | 0.0029 ± 0.0002 | 0.0037 ± 0.0004 | 0.16 ± 0.032
